Assay results published in US20250049781A1, “PHARMACEUTICAL COMPOSITIONS COMPRISING RPL554 IN HFA-134A FOR ADMINISTRATION BY INHALATION” (VERONA PHARMA PLC, priority 2018, published 2025).
Where “and” joins values, the source holds several entries; their conditions need not be identical. Identical values can stand only once.

What was measured:
Type in all cases: physicochemical
[1] = Sedimentation score of RPL554 suspensions in HFA-134a, HFA-227ea and mixtures (visual, glass vials); parameters: key to Sedimentation score: 1 = fastest sediment/cream (undesirable), 10 = slowest (acceptable)
Procedure: (§1) Samples were made by adding the required amounts of RPL554 (see Table 3) to 15 ml pressure rated clear glass vials. The propellant, HFA-134a, HFA-227ea or combinations of the two (see Table 4) was added through the valve and the samples were mixed in an ultrasonic bath for 30 seconds. The same target fill weight of 11.6 g (±0.5 g) was used for all samples. The appearance of the API particles in the propellants was assessed with regards to both the sedimentation rate and flocculation behaviour (see FIG. 1). The sedimentation rate of the formulations was visually assessed after suspension agitation by recording images of the glass vials using a high-speed camera. The suspension quality was determined by assigning a sedimentation score of from 1 to 10 based on the amount of active particles which had settled or floated in 30 seconds, with 1being the fastest to sediment/cream (i.e. undesirable) and 10 being the slowest to sediment/cream (i.e. acceptable).

[2] = Sedimentation score of pMDI formulations containing HFA-134a, oleic acid and ethanol; parameters: key: 1 = fastest sedimentation (undesirable), 10 = slowest (acceptable)
Procedure: as §1
In order to seek to improve the suspension characteristics the inclusion of additional excipients was investigated. In particular, formulations further comprising a surfactant (oleic acid, Ph. Eur./BP) and a co-solvent (ethanol, 100% USP-NF) were prepared.

[3] = RPL554 dissolved in HFA-134a/ethanol with or without oleic acid (UV/Visible); conditions: 24 hours at ambient temperature
Procedure: Samples were prepared by adding 1.5 mg of RPL554 to plain 14 mL aluminium canisters, with ethanol, oleic acid and HFA-134a. Excipients were added to the canisters to maintain an ethanol/oleic acid ratio of a 50:1 (see Table 8). Corresponding canisters were also produced containing RPL554, ethanol and HFA-134a only. The canisters were crimped with 63 μL pMDI valves, with shortened dip tubes (FIG. 3), and filled to 11.6 g with HFA-134a through the valve. The length of the dip tubes was sufficient to extend into the liquid propellant/co-solvent phase only (i.e. after the API particles had settled). The samples were placed in an ultrasonic bath for 30 seconds.
All the canisters were left for 24 hours at ambient temperature to settle and to establish dissolution equilibrium. To determine the amount of API dissolved, each canister was fired five times, in an upright position (through a cannula fitted to the valve stem) into a 10.0 cm^3 volumetric flask. The flask was made up to volume with dehydrated ethanol and the solution was analysed using UV/Visible spectroscopy (Perkin Elmer, Model Lambda 35). The concentration of RPL554 was calculated, quantitatively, against a three point standard curve.

[4] = Solubility of RPL554 in ethanol (USP/BP criteria)
Procedure: However, the observations of dissolution and recrystallisation with the lowest product strength (10 μg/actuation) prompted further investigations into the solubility of RPL554 in ethanol in the presence of oleic acid.
The original assessment was carried out using Analytical Reagent grade ethanol. […] Unexpectedly, RPL554 was therefore found to have some solubility in ethanol.

Sedimentation score ([1]; 10 μg/actuation, HFA-134a 0% w/w, HFA-227ea 100% w/w): 3
Sedimentation score ([1]; 10 μg/actuation, HFA-134a 25% w/w, HFA-227ea 75% w/w): 5
Sedimentation score ([1]; 10 μg/actuation, HFA-134a 50% w/w, HFA-227ea 50% w/w): 4
Sedimentation score ([1]; 10 μg/actuation, HFA-134a 75% w/w, HFA-227ea 25% w/w): 6
Sedimentation score ([1]; 10 μg/actuation, HFA-134a 100% w/w, HFA-227ea 0% w/w, scale 1-10, 10 slowest): 6
Sedimentation score ([1]; 50 μg/actuation, HFA-134a 0% w/w, HFA-227ea 100% w/w): 3
Sedimentation score ([1]; 50 μg/actuation, HFA-134a 25% w/w, HFA-227ea 75% w/w): 4
Sedimentation score ([1]; 50 μg/actuation, HFA-134a 50% w/w, HFA-227ea 50% w/w): 3
Sedimentation score ([1]; 50 μg/actuation, HFA-134a 75% w/w, HFA-227ea 25% w/w): 6
Sedimentation score ([1]; 50 μg/actuation, HFA-134a 100% w/w, HFA-227ea 0% w/w): 6
Sedimentation score ([1]; 150 μg/actuation, HFA-134a 0% w/w, HFA-227ea 100% w/w): 3
Sedimentation score ([1]; 150 μg/actuation, HFA-134a 25% w/w, HFA-227ea 75% w/w): 4
Sedimentation score ([1]; 150 μg/actuation, HFA-134a 50% w/w, HFA-227ea 50% w/w): 3
Sedimentation score ([1]; 150 μg/actuation, HFA-134a 75% w/w, HFA-227ea 25% w/w): 3
Sedimentation score ([1]; 150 μg/actuation, HFA-134a 100% w/w, HFA-227ea 0% w/w): 5
Sedimentation score ([1]; 500 μg/actuation, HFA-134a 0% w/w, HFA-227ea 100% w/w): 2
Sedimentation score ([1]; 500 μg/actuation, HFA-134a 25% w/w, HFA-227ea 75% w/w): 3
Sedimentation score ([1]; 500 μg/actuation, HFA-134a 50% w/w, HFA-227ea 50% w/w): 2
Sedimentation score ([1]; 500 μg/actuation, HFA-134a 75% w/w, HFA-227ea 25% w/w): 3
Sedimentation score ([1]; 500 μg/actuation, HFA-134a 100% w/w, HFA-227ea 0% w/w): 3
Sedimentation score ([1]; 1000 μg/actuation, HFA-134a 0% w/w, HFA-227ea 100% w/w): 2
Sedimentation score ([1]; 1000 μg/actuation, HFA-134a 25% w/w, HFA-227ea 75% w/w): 4
Sedimentation score ([1]; 1000 μg/actuation, HFA-134a 50% w/w, HFA-227ea 50% w/w): 3
Sedimentation score ([1]; 1000 μg/actuation, HFA-134a 75% w/w, HFA-227ea 25% w/w): 4
Sedimentation score ([1]; 1000 μg/actuation, HFA-134a 100% w/w, HFA-227ea 0% w/w): 4
Sedimentation score ([2]; 10 μg/actuation, ethanol 1% w/w, oleic acid 0.010% w/w): 6
Sedimentation score ([2]; 10 μg/actuation, ethanol 1% w/w, oleic acid 0.500% w/w): 1
Sedimentation score ([2]; 10 μg/actuation, ethanol 5% w/w, oleic acid 0.255% w/w): 6
Sedimentation score ([2]; 10 μg/actuation, ethanol 15% w/w, oleic acid 0.010% w/w): 6
Sedimentation score ([2]; 10 μg/actuation, ethanol 15% w/w, oleic acid 0.500% w/w): 6
Sedimentation score ([2]; 150 μg/actuation, ethanol 1% w/w, oleic acid 0.255% w/w): 2
Sedimentation score ([2]; 150 μg/actuation, ethanol 5% w/w, oleic acid 0.010% w/w): 4
Sedimentation score ([2]; 150 μg/actuation, ethanol 5% w/w, oleic acid 0.255% w/w (six replicate samples)): 5 (5×) and 4
Sedimentation score ([2]; 150 μg/actuation, ethanol 5% w/w, oleic acid 0.500% w/w): 4
Sedimentation score ([2]; 150 μg/actuation, ethanol 15% w/w, oleic acid 0.255% w/w): 8
Sedimentation score ([2]; 1000 μg/actuation, ethanol 1% w/w, oleic acid 0.010% w/w): 3
Sedimentation score ([2]; 1000 μg/actuation, ethanol 1% w/w, oleic acid 0.500% w/w): 2
Sedimentation score ([2]; 1000 μg/actuation, ethanol 5% w/w, oleic acid 0.255% w/w): 3
Sedimentation score ([2]; 1000 μg/actuation, ethanol 15% w/w, oleic acid 0.010% w/w): 4
Sedimentation score ([2]; 1000 μg/actuation, ethanol 15% w/w, oleic acid 0.500% w/w): 5
Effect of oleic acid on the solubility of RPL554 ([3]; HFA-134a/ethanol, ethanol/oleic acid ratio 50:1): no effect
Solubility classification according to the USP/BP criteria ([4]; Analytical Reagent grade ethanol, previous (original) assessment): practically insoluble
Solubility classification according to the USP/BP criteria ([4]; dehydrated alcohol (100% USP-NF ethanol), reassessment): very slightly soluble
Structure (SMILES): COc1cc2c(cc1OC)-c1c/c(=N\c3c(C)cc(C)cc3C)n(CCNC(N)=O)c(=O)n1CC2 [RPL554, 9,10-dimethoxy-2-(2,4,6-trimethylphenylimino)-3-(N-carbamoyl-2-aminoethyl)-3,4,6,7-tetrahydro-2H-pyrimido[6,1-a]isoquinolin-4-one]
Suspension behaviour on and after shaking ([1]; formulation in HFA-134a): readily suspended on shaking, with rapid flocculation and gradual sedimentation observed after shaking was stopped
Suspension behaviour on and after shaking ([1]; formulation in HFA-227ea): creaming was observed after the cessation of shaking
Suspension behaviour on and after shaking ([1]; formulation in blend of HFA-134a/HFA-227ea (50/50)): creaming was observed after the cessation of shaking
Amount of dissolved RPL554 versus ethanol concentration ([3]; HFA-134a with 1-12% w/w ethanol): increased with increasing ethanol concentration
